Literature values in CN114794330A, “一种调节水生动物活力状态的功能性调理剂及其制备方法” (Nori Shanghai Bioengineering Co ltd, priority 2022, dated 2022).

- solubility in 95% ethanol (95% ethanol, 17℃): 0.004%
- solubility in acetone (acetone): 不溶
- solubility in anhydrous ethanol (anhydrous ethanol): 不溶
- solubility in diethyl ether (diethyl ether): 不溶
- solubility in water (water, 12℃): 0.5%
SMILES: NCCS(=O)(=O)O [牛磺酸, 2-氨基乙磺酸]
